Structures can show the parent of a compound that is named as a salt. Where two headings read alike, the source gives them in different places.
How the values were obtained:
MCL-1 = MCL-1 (Homo sapiens, UniProt Q07820); assay: Protein-protein interaction assay MCL-1/Noxa BH3 peptide (MCL-1 assay), TR-FRET; assay type: binding; conditions: MBP-MCL-1 / Noxa BH3-derived peptide, median
Method in brief: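 Inhibition values were normalized between DMSO controls with all reagents and controls lacking MCL-1. The binding competition used 1 nM MBP-MCL-1 in pH 7 Tris buffer containing 50 mM KF and 100 mM NaCl, with a 10 min compound preincubation at 22 °C.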

SUDHL5 [1] = assay: Induction of caspase-3/7 activity (Caspase-Glo 3/7), SUDHL5; assay type: cell-based; conditions: caspase-3/7 induction, SUDHL5 cells, 3 h treatment, median
Method in brief: (§1)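 Apoptosis induction measured as caspase-3/7 activity (Caspase-Glo 3/7) in DLBCL lines after 3 h treatment at 37 °C; EC50 derived relative to the reference compound's maximal induction, with C0 fixed at 1.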

SUDHL10 [2] = assay: Induction of caspase-3/7 activity (Caspase-Glo 3/7), SUDHL10; assay type: cell-based; conditions: caspase-3/7 induction, SUDHL10 cells, 3 h treatment, median
Method in brief: as §1

SUDHL5 [3] = assay: Anti-proliferative effect (CellTiter-Glo, 72 h), SUDHL5; assay type: cell-based; conditions: SUDHL5 cells, antiproliferation, median, read-out: Antiproli SUDHL5 [M] (median)
Method in brief: (§2)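 Luminescence from CellTiter-Glo, read 10 min after reagent addition, reports viable cell content after 72 h of compound treatment at 37 °C. A reference plate read at day 0 gives the starting baseline.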

A2780 = assay: Anti-proliferative effect (CellTiter-Glo, 72 h), A2780; assay type: cell-based; conditions: A2780 cells, median, read-out: IC50 antiproliferation assay A2780 [M] (median)
Method in brief: as §2

MV-4-11 = assay: Anti-proliferative effect (CellTiter-Glo, 72 h), MV-4-11; assay type: cell-based; conditions: MV-4-11 cells, median, read-out: IC50 antiproliferation assay MV-4-11 [M] (median)
Method in brief: as §2

SUDHL5 [4] = assay: Induction of cytotoxicity (CellTiter-Glo, 5 h), SUDHL5
SUDHL10 [5] = assay: Induction of cytotoxicity (CellTiter-Glo, 5 h), SUDHL10
[6] = Homo sapiens, SU-DHL-5, 72 h, 72 h
[7] = Homo sapiens, SU-DHL-5, 5 h, read-out: Cytotox SUDHL5 [M] (median), SUDHL5 cells, cytotoxicity induction, CellTiter-Glo, 5 h, median
[8] = Homo sapiens, SU-DHL10, 5 h, read-out: Cytotox SUDHL10 [M] (median), SUDHL10 cells, cytotoxicity induction, CellTiter-Glo, 5 h, median
[9] = read-out: Cytotox SUDHL5 [M] (median), SUDHL5 cells, cytotoxicity induction, CellTiter-Glo, 5 h incubation, median
[10] = read-out: Cytotox SUDHL10 [M] (median), SUDHL10 cells, cytotoxicity induction, CellTiter-Glo, 5 h incubation, median

Sequence of MCL-1 (Q07820 whole entry): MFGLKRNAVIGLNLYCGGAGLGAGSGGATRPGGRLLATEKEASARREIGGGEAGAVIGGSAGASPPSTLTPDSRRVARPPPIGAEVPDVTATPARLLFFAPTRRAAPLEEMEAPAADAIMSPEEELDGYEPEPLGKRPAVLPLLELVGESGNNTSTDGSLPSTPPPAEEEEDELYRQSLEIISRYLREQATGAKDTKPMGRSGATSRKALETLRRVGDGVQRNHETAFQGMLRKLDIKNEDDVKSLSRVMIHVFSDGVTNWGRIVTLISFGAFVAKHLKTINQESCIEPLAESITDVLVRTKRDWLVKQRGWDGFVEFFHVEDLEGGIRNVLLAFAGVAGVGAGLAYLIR

Compound	IC50 (MCL-1)	EC50 (SUDHL5 [1]; Homo sapiens, SU-DHL-5, 3 h)	EC50 (SUDHL10 [2]; Homo sapiens, SU-DHL10, 3 h)	IC50 (SUDHL5 [3]; [6])	IC50 (A2780; Homo sapiens, A2780, 72 h)	IC50 (MV-4-11; Homo sapiens, MV4-11, 72 h)	EC50 (SUDHL5 [1])	EC50 (SUDHL10 [2])	IC50 (SUDHL5 [3]; 72 h incubation)	IC50 (A2780)	IC50 (MV-4-11)	IC50 (SUDHL5 [4]; [7])	IC50 (SUDHL10 [5]; [8])	IC50 (SUDHL5 [4]; [9])	IC50 (SUDHL10 [5]; [10])	IC50 (SUDHL10 [5]; Homo sapiens, SU-DHL10, 5 h, read-out: Cytotox SUDHL10 [M] (median), SUDHL10 cells, cytotoxicity induction, CellTiter-Glo, 5 h incubation, median)
Cc1c2c(nn1C)COCCCCn1c(C(=O)O)c(CCc3ccc(C(F)(F)F)cc3)c3cccc-2c31 (racemic) [Example 355, (rac)-2,3-dimethyl-7-{2-[4-(trifluoromethyl)phenyl]ethyl}-2,10,11,12,13,15-hexahydropyrazolo[4′,3′:9,10][1,6]oxazacycloundecino[8,7,6-hi]indole-8-carboxylic Acid]	1.51 µM	> 33 µM	> 33 µM	3.2e-05 M	> 3.3e-05 M	> 3.3e-05 M						> 3.3e-05 M	> 3.3e-05 M			
Cc1c2c(nn1CCN1CCOCC1)COCCCCn1c(C(=O)O)c(CCCOc3cccc4cc(F)ccc34)c3cccc-2c31 (single isomer, unassigned) [Example 286, (−)-7-{3-[(6-fluoronaphthalen-1-yl)oxy]propyl}-3-methy-2-[2-(morpholin-4-yl)ethyl]-2,10,11,12,13,15-hexahydropyrazolo[4′,3′:9,10][1,6]oxazacycloundecino[8,7,6-hi]indole-8-carboxylic acid-N-ethylethanamine Salt]	0.0272 µM						11.8 µM	> 33 µM	5.11e-06 M	1.26e-05 M	1.73e-05 M			1.2e-05 M	> 3.3e-05 M	
CCc1nn(C)c2c1-c1cccc3c(CCCOc4cccc5c4CCCC5)c(C(=O)O)n(c13)CCCCOC2 (racemic) [Example 291, (rac)-12-ethyl-10-methyl-1-(3-((5,6,7,8-tetrahydronaphthalen-1-yl)oxy)propyl)-4,5,6,7,9,10-hexahydropyrazolo[4′,3′:9,10][1]oxa[6]azacycloundecino[8,7,6-hi]indole-2-carboxylic Acid]	0.00238 µM	8.51 µM	32 µM	8.71e-06 M	> 3.3e-05 M	1.82e-05 M		> 33 µM				8.6e-06 M	> 3.3e-05 M			
Cc1nn(C)c2c1-c1cccc3c(CCCOc4cccc5c(Cl)cccc45)c(C(=O)O)n(c13)CCCCOC2 (racemic) [Example 316, (rac)-1-(3-((5-chloronaphthalen-1-yl)oxy)propyl)-10,12-dimethyl-4,5,6,7,9,10-hexahydropyrazolo[4′,3′:9,10][1,6]oxaazacycloundecino[8,7,6-hi]indole-2-carboxylic Acid]	0.00308 µM	17.7 µM	> 33 µM	1.43e-05 M	> 3.3e-05 M	> 3.3e-05 M						1.94e-05 M	> 3.3e-05 M			

The next lines start with results.

IC50 (MCL-1)	EC50 (SUDHL5 [1]; Homo sapiens, SU-DHL-5, 3 h)	EC50 (SUDHL10 [2]; Homo sapiens, SU-DHL10, 3 h)	IC50 (SUDHL5 [3]; [6])	IC50 (A2780; Homo sapiens, A2780, 72 h)	IC50 (MV-4-11; Homo sapiens, MV4-11, 72 h)	EC50 (SUDHL5 [1])	EC50 (SUDHL10 [2])	IC50 (SUDHL5 [3]; 72 h incubation)	IC50 (A2780)	IC50 (MV-4-11)	Compound	IC50 (SUDHL5 [4]; [7])	IC50 (SUDHL10 [5]; [8])	IC50 (SUDHL5 [4]; [9])	IC50 (SUDHL10 [5]; [10])	IC50 (SUDHL10 [5]; Homo sapiens, SU-DHL10, 5 h, read-out: Cytotox SUDHL10 [M] (median), SUDHL10 cells, cytotoxicity induction, CellTiter-Glo, 5 h incubation, median)
0.0312 µM						> 33 µM	> 33 µM	1.56e-05 M	2.41e-05 M	1.21e-05 M	Cn1nc2c(c1CN1CCOCC1)-c1cccc3c(CCCOc4cccc5ccccc45)c(C(=O)O)n(c13)CCCCOC2 (single isomer, unassigned; enantiomer 2) [Example 080, 2-methyl-3-(morpholin-4-ylmethyl)-7-[3-(naphthalen-1-yloxy)propyl]-2,10,11,12,13,15-hexahydropyrazolo[4′3′:9,10][1,6]oxazacycloundecino[8,7,6-hi]indole-8-carboxylic acid-N-ethylethanamine Salt (Enantiomer 2)]			> 3.3e-05 M	> 3.3e-05 M	
0.00302 µM				> 3.3e-05 M	2.09e-05 M	3.15 µM	14.2 µM	3.15e-06 M			CN1CCCCn2c(C(=O)O)c(CCCOc3cccc4ccccc34)c3cccc(c32)-c2c(/C=C/F)nn(C)c2C1 (single isomer, unassigned) [Example 226, 3-[(E)-2-fluoroethenyl]-1,14-dimethyl-7-[3-(naphthalen-1-yloxy)propyl]-10,11,12,13,14,15-hexahydro-1H-pyrazolo[3′,4′:8,9][1,6]diazacycloundecino[10,11,1-hi]indole-8-carboxylic Acid]			3.41e-06 M		3.04e-05 M

Reference: patent US10981932B2, “Macrocyclic indole derivatives” (Bayer Aktiengesellschaft, priority 2016, dated 2021)
